Laboratory results: patent US9624549B2, “Stable gene targets in breast cancer and use thereof for optimizing therapy” (Cytognomix Inc., priority 2012, dated 2017)
Where “and” joins values, the source holds several entries; their conditions need not be identical. Identical values can stand only once. Like-named read-outs stand apart in the source and are kept apart here.

Key:
BT549 = BT549 cell line; replicate assays; cited from earlier work
HS578T [1] = conditions: HS578T cell line; replicate assays; cited from earlier work
MCF7 = MCF7 cell line; replicate assays; cited from earlier work
MDAMB231 = conditions: MDA231 (MDAMB231) cell line; replicate assays; cited from earlier work
T47D = T47D cell line; replicate assays; cited from earlier work
[2] = system: triple-negative breast cancer cell lines; conditions: triple-negative breast cancer cell lines (Liu et al. 2009); cited from earlier work
HS578T [3] = test: GI50 of breast cancer cell lines from NCI60 panel; assay type: cell-based; conditions: Homo sapiens, Hs-578T, mean of replicate GI50s, read-out: mean concentration (GI50) (converted)
Excerpt: Certain anti-breast cancer therapies have been evaluated in the NCl-60 panel of cancer cell lines (Staunton J E, Slonim D K, Coller H A, Tamayo P, Angelo M J, Park J, Scherf U, Lee J K, Reinhold W O, Weinstein J N and others. 2001. Chemosensitivity prediction by transcriptional profiling. Proc Natl Acad Sci USA 98:10787-92.) including four cell lines we studied (MCF7, MDA-MB-231, HS578T, and T-47D). We have confirmed stable copy numbers for a representative group of target genomic intervals in 5 breast cancer lines (MCF7, MDAMB231, HS578T, T47D and SKBR-3). Despite the lack of stratification in pathology in the tumors studied, genomic architectures and functions were preserved in these regions. Paclitaxel and its derivatives, estrone, estradiol, and topotecan are common therapies that act on multiple products encoded by dually stable genes which may, in part, explain why they are effective for inhibiting growth of these cell lines and for treating breast cancer.

Compound	GI50 (BT549)	GI50 (HS578T [1])	GI50 (MCF7)	GI50 (MDAMB231)	GI50 (T47D)	anti-cancer activity [2]	GI50 (HS578T [3])
Nc1ccn([C@@H]2O[C@H](CO)[C@@H](O)C2(F)F)c(=O)n1 [Gm, gemcitabane]	7.80 −log10M and 8.00 −log10M	5.65 −log10M and 4.00 −log10M	7.99 −log10M and 8.00 −log10M	5.86 −log10M and 6.28 −log10M and 6.03 −log10M	6.26 −log10M and 8.00 −log10M and 5.86 −log10M	–	–
S=c1nc[nH]c2nc[nH]c12 [Me, mercaptopurine]	4.52 −log10M and 3.74 −log10M and 4.00 −log10M	4.85 −log10M and 4.84 −log10M	5.78 −log10M and 5.74 −log10M and 5.82 −log10M	4.61 −log10M and 5.14 −log10M	5.45 −log10M and 5.62 −log10M	–	–
CN(C)C(=N)N=C(N)N [Metformin]	–	–	–	–	–	has anti-cancer activity	–
CC(=O)O[C@H]1C(=O)[C@@]2(C)[C@H]([C@H](OC(=O)c3ccccc3)[C@]3(O)C[C@H](OC(=O)[C@H](O)[C@@H](NC(=O)c4ccccc4)c4ccccc4)C(C)=C1C3(C)C)[C@]1(OC(C)=O)CO[C@@H]1C[C@@H]2O [Pa, Paclitaxel]	9.30 −log10M and 7.60 −log10M and 8.45 −log10M	8.81 −log10M and 8.22 −log10M and 8.52 −log10M	9.06 −log10M and 8.01 −log10M and 8.53 −log10M	8.56 −log10M and 7.27 −log10M and 7.91 −log10M	6.56 −log10M and 7.27 −log10M and 6.91 −log10M	–	0.00316 µM
CC[C@@]1(O)C(=O)OCc2c1cc1n(c2=O)Cc2cc3c(CN(C)C)c(O)ccc3nc2-1 [To, topotecan]	7.36 −log10M and 7.05 −log10M and 7.32 −log10M	5.96 −log10M and 5.14 −log10M and 5.73 −log10M	8.09 −log10M and 7.79 −log10M and 7.83 −log10M	6.41 −log10M and 5.67 −log10M and 5.65 −log10M	8.24 −log10M and 7.82 −log10M and 7.73 −log10M	–	28.2 µM
